{"source": "paper PMC6718442", "about": "“11β-Hydroxysteroid dehydrogenases control access of 7β,27-dihydroxycholesterol to retinoid-related orphan receptor γ” (Journal of Lipid Research, 2019)", "key": {"human 11β-HSD1 [1]": {"molecular_target": "T1, human 11β-HSD1 (Homo sapiens, UniProt P28845)", "T1 construct": "expressed in transfected cells", "T1 sequence (P28845 whole entry)": "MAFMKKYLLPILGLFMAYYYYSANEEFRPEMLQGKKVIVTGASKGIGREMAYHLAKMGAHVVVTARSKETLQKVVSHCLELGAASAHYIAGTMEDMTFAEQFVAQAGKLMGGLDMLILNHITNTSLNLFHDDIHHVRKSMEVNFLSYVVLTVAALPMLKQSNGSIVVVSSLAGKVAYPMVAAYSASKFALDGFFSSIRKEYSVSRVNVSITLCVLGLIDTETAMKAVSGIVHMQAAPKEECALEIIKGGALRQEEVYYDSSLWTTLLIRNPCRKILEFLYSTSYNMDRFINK", "details": "substrate of 11β-HSD1, cited from earlier work"}, "RORγ": {"molecular_target": "T2, RORγ (Homo sapiens, UniProt P51449)", "T2 sequence (P51449 1-518)": "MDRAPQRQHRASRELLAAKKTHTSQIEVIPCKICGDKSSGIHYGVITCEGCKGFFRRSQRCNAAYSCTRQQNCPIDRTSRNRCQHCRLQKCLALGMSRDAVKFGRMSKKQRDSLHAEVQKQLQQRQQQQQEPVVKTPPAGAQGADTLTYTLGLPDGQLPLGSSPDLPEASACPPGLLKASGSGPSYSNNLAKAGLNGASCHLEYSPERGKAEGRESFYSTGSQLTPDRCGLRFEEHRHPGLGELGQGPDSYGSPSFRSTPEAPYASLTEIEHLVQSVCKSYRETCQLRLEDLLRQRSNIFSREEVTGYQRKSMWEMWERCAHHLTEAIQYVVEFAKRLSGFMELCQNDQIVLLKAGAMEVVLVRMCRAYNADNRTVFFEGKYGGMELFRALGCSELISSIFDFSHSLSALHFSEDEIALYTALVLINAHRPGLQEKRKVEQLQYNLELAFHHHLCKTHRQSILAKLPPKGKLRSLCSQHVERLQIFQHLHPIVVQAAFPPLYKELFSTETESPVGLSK", "assay": "Glucose-6-phosphatase luciferase reporter in SW-620 cells overexpressing RORγ (preliminary)", "format": "cell-based", "design": "expressed in transfected cells; host or cells: SW-620", "details": "inhibition of 11β-HSD2 by GA in SW-620 cells, trend"}, "11β-HSD2 [2]": {"molecular_target": "T3, 11β-HSD2 (Homo sapiens, UniProt P80365)", "T3 construct": "expressed in transfected cells", "T3 sequence (P80365 1-405)": "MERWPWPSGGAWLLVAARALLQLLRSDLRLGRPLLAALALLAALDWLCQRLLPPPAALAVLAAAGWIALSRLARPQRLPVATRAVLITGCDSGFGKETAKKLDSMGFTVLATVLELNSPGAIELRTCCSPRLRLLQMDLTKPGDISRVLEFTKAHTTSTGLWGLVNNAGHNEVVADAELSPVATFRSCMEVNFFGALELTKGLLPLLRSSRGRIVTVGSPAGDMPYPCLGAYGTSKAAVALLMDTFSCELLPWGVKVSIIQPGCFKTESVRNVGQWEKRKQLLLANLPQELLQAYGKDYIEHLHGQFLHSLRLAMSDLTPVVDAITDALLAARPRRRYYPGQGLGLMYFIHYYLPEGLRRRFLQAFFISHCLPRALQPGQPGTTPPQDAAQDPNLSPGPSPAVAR", "details": "substrate of 11β-HSD2, ref [34], cited from earlier work"}, "11β-HSD2 [3]": {"molecular_target": "T3, 11β-HSD2", "design": "method as in PMID 30902677", "details": "intact cells, oxidation by 11β-HSD2, ref [46], cited from earlier work"}, "human 11β-HSD1 [4]": {"molecular_target": "T1, human 11β-HSD1", "design": "method as in PMID 30902677", "details": "intact cells, oxoreduction by 11β-HSD1, ref [46], cited from earlier work"}}, "note": "Like-named read-outs stand apart in the source and are kept apart here.", "data": [{"smiles": "CC(C)CCC[C@@H](C)[C@H]1CC[C@H]2[C@@H]3C(=O)C=C4C[C@@H](O)CC[C@]4(C)[C@H]3CC[C@]12C", "note": "[7kC, 7-ketocholesterol]", "values": [{"measurement": "KMapp", "setting": "human 11β-HSD1 [1]; ref [19]", "result": "~500", "unit": "nM"}]}, {"smiles": "C[C@H](CCC(=O)O)[C@H]1CC[C@H]2[C@@H]3C(=O)C[C@@H]4C[C@H](O)CC[C@]4(C)[C@H]3CC[C@]12C", "note": "[7oxoLCA, 7-oxolithocholic acid]", "values": [{"measurement": "KMapp", "setting": "human 11β-HSD1 [1]; ref [49]", "result": "~1000", "unit": "nM"}]}, {"smiles": "C[C@]12CC(=O)[C@H]3[C@@H](CCC4=CC(=O)CC[C@@]43C)[C@@H]1CC[C@@H]2C(=O)CO", "note": "[11-DHC, 11-dehydrocorticosterone]", "values": [{"measurement": "KMapp", "setting": "human 11β-HSD1 [1]; ref [19], [34]", "result": "250 to 500", "unit": "nM"}]}, {"smiles": "CC1(C)[C@@H](O)CC[C@]2(C)[C@H]3C(=O)C=C4[C@@H]5C[C@@](C)(C(=O)O)CC[C@]5(C)CC[C@@]4(C)[C@]3(C)CC[C@@H]12", "note": "[GA, glycyrrhetinic acid]", "values": [{"measurement": "Increase of RORγ activity compared with cells treated with 7β27OHC only", "setting": "RORγ", "result": "approximately 10%"}]}, {"smiles": "C[C@]12CCC(=O)C=C1CC[C@@H]1[C@@H]2[C@@H](O)C[C@@]2(C)[C@H]1CC[C@]2(O)C(=O)CO", "note": "[cortisol]", "values": [{"measurement": "KMapp", "setting": "11β-HSD2 [2]", "result": "~200", "unit": "nM"}, {"measurement": "KMapp", "setting": "11β-HSD2 [2]; listed as Cortisol", "result": "200 ([34]) nM"}, {"measurement": "Vapp cell intact", "setting": "11β-HSD2 [3]", "result": "1.01 ± 0.35 nmol·h^−1·mg total protein^−1"}, {"measurement": "Vapp cell intact", "setting": "11β-HSD2 [3]; listed as Cortisol", "result": "1.01 ± 0.35 ([46]) nmol·h^−1·mg total protein^−1"}]}, {"smiles": "C[C@]12CCC(=O)C=C1CC[C@@H]1[C@@H]2C(=O)C[C@@]2(C)[C@H]1CC[C@]2(O)C(=O)CO", "note": "[cortisone, reference compound]", "values": [{"measurement": "KMapp", "setting": "human 11β-HSD1 [1]; ref [19], [34]", "result": "250 to 500", "unit": "nM"}, {"measurement": "KMapp", "setting": "human 11β-HSD1 [1]; ref [19], [34], listed as Cortisone", "result": "250–500 ([19], [34]) nM"}, {"measurement": "Vapp cell intact", "setting": "human 11β-HSD1 [4]", "result": "1.59 ± 0.25 nmol·h^−1·mg total protein^−1"}, {"measurement": "Vapp cell intact", "setting": "human 11β-HSD1 [4]; listed as Cortisone", "result": "1.59 ± 0.25 ([46]) nmol·h^−1·mg total protein^−1"}]}]}
